Experimental data as given in patent US20240158370A1, “CK1 alpha AND DUAL CK1 alpha / GSPT1 DEGRADING COMPOUNDS” (Innovo Therapeutics, Inc., priority 2022, published 2024).

Assays:
Assay type in all cases: cell-based
[1] = biological target: T1, CK1α (Homo sapiens, UniProt P48729+Q96SW2); experiment: HiBiT degradation assay, CK1α, Procedure A
T1 construct: CSNK1A1-HiBit KI HEK293(LgBit) Cells; host or cells: HEK293(LgBit) knock-in cells
Method in brief: (§1)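 Luminescence from HiBiT lytic detection reports remaining tagged protein after cells sit six hours at 37° C with compound across ten concentrations (10 μM down to 0.005 μM, 0.1% DMSO). A 4-parameter curve fit gives DC50 and Ymin.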

[2] = test system: Z-138 cells; experiment: Z-138 Proliferation Assay (Cell Titer-Glo); conditions: 72 hours; for Ymin (%): % remaining (percent of DMSO control); for EC50: Homo sapiens, Cell Titer-Glo, 4-parameter curve fit
Protocol: Z-138 Proliferation Assay
Z-138 cells were cultured in IMDM Medium supplemented with 10% heat in-activated fetal bovine serum and 1% Penicillin-Streptomycin.
10 mM stocks of compound were made from fresh powder. DMSO was added to solid compound so that the final concentration was 10 mM. Compounds were vortexed and allowed to sit for 5 minutes to ensure complete solubility. Solvated compound was aliquoted into 1 ml Eppendorf tubes and stored in a −20° C. freezer.
Z-138 cells were maintained in culture using standard cell culturing techniques.
Cells were maintained at a density of 0.8×10^6 cells/ml.
Re-constitute cell titer-glo reagent according to manufacturer's protocol.
Z-138 cells were removed from culture and cell viability and density were determined using a CellDrop™ Automated Cell Counter with Tryphan blue stain according to manufacturer's protocols. Cells were centrifuged and resuspended using fresh media to a cell density of 0.1×10^6 cells/ml. […] 40 μl of cell suspension was added to the wells of a 384 well tissue culture plate (4,000 cells/well final). Upon completing the addition of the cells to the plate, the plates were centrifuged for 30 seconds at 300 rpms to help the cells settle and to bring air bubbles to the top of the wells. Air bubbles were popped using a pipette tip.
10-point dose response curves were performed using a D300e Digital Dispenser. The highest concentration of compound used in the assay was 10,000 nM. 1:2 dilutions were performed over a 10-point range with the final DMSO concentration being 0.1%. The cells were cultured for 72 hours in the presence of compound.
After 72 hours, the cell plates were removed from the incubator and allowed to equilibrate to room temperature (about 15 minutes). 20 μl of cell titer-glo reagent was added to each well of the 384 well plate. Incubated the plate for 30 minutes in the dark. After 30 minutes, ensured that there were no air bubbles in the plate (popped bubbles with pipette tip if necessary) and analyzed plate using a luminometer.
EC50 curves were generated using Prism Graph Pad. In brief, POCs (percent of control, compound/DMSO control×100) were plotted against the compound concentrations (log scale). EC50 curves were generated using a 4-parameter curve fit.

[3] = biological target: GSPT1 (Homo sapiens, UniProt P15170+Q96SW2); experiment: HiBiT degradation assay, GSPT1, Procedure A; parameters: HiBit-GSPT1 KI HEK293(LgBit) Cells; host or cells: HEK293(LgBit) knock-in cells
Method in brief: as §1

Chain of GSPT1 (P15170 whole entry): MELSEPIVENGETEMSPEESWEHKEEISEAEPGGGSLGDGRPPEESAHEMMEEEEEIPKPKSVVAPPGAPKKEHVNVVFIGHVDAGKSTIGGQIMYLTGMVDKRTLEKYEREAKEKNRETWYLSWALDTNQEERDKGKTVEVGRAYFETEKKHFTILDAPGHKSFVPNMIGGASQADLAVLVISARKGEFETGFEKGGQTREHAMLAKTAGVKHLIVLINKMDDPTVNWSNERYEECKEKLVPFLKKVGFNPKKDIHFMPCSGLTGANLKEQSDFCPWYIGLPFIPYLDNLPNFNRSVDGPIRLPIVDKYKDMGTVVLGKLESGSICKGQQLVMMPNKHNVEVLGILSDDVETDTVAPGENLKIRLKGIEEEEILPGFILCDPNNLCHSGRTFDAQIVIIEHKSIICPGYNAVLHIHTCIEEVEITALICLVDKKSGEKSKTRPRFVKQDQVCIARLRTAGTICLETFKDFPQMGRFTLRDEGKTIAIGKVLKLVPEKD
Chain of GSPT1 (Q96SW2 whole entry): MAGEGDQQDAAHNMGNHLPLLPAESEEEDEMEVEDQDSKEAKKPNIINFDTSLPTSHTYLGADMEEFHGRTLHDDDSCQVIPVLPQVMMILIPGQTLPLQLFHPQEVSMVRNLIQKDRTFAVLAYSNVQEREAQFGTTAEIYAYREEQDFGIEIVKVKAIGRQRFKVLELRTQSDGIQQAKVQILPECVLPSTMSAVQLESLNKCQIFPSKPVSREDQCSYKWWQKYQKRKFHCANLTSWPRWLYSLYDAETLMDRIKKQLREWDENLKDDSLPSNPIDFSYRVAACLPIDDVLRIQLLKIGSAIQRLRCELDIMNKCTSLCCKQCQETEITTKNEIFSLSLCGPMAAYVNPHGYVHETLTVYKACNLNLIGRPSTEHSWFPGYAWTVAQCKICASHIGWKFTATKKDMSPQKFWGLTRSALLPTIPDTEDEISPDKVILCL
Chain of GSPT1 (Q16531 whole entry partner): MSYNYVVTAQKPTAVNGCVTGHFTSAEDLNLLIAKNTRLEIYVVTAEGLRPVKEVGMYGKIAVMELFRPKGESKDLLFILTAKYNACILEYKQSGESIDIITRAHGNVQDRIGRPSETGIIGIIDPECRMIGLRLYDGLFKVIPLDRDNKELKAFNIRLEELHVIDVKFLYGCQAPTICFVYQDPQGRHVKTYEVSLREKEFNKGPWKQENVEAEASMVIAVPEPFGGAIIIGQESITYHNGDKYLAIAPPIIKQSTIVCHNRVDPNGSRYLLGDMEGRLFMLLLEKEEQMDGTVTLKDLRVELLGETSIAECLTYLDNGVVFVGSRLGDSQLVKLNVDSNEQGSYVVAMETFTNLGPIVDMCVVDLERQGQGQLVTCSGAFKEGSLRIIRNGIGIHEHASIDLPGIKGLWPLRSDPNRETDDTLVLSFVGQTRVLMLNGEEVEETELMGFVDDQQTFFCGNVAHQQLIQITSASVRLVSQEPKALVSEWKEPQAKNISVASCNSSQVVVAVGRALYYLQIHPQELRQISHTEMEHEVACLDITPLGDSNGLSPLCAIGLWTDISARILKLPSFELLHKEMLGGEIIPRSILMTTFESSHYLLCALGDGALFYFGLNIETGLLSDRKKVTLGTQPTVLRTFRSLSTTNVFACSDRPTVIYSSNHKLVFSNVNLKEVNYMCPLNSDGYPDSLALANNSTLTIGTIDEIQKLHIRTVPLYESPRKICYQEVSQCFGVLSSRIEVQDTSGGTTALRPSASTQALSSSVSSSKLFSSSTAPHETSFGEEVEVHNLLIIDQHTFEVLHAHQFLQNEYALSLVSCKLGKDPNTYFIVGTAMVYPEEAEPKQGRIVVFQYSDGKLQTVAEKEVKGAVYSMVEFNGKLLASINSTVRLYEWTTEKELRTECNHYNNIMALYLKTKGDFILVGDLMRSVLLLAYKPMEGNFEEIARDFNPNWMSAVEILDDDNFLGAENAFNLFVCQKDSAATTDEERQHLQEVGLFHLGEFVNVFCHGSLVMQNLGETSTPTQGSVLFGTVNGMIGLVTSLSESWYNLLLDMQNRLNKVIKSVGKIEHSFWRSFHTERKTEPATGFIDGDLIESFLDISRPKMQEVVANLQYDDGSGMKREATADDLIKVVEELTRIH
T1 sequence (P48729 whole entry): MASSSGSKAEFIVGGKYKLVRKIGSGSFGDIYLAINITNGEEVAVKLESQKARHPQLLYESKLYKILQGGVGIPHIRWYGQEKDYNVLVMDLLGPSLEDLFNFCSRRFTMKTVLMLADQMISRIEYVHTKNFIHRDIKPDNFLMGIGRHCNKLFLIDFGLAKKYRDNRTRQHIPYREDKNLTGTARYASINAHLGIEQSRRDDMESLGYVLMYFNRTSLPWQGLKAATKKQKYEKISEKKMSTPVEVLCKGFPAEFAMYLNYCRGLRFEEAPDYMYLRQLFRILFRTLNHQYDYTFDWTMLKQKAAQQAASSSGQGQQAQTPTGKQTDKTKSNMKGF
T1 sequence (Q96SW2 whole entry): as the sequence (Q96SW2 whole entry) above
T1 sequence (Q16531 whole entry partner): as the sequence (Q16531 whole entry partner) above

Compound | CK1α Ymin ([1]; six hours incubation) | DC50 ([1]; six hours incubation) [nM] | Ymin (%) [2] | EC50 [2] [nM] | DC50 ([3]; six hours incubation) [nM] | GSPT1 Ymin ([3]; six hours incubation) | CK1α Ymin ([1]; six hours) | DC50 ([1]; six hours) [nM] | DC50 ([3]; six hours) [nM] | GSPT1 Ymin ([3]; six hours)
O=C1CCC(N2Cc3cc(-c4cnn5c4-c4ccccc4C5)ccc3C2=O)C(=O)N1 (stereo not drawn) [Example 212, 3-(1-Oxo-5-(8H-pyrazolo[5,1-a]isoindol-3-yl)isoindolin-2-yl)piperidine-2,6-dione] | D (D = >10- 25% remaining) | < 25 | D (0-10% remaining) | 100 to 500 | ≥ 25 | F (F = >75-100% remaining) | – | – | – | –
CN(C)Cc1ccc(-c2c(-c3ccc4c(c3)CN(C3CCC(=O)NC3=O)C4=O)cnn2C)cc1 (stereo not drawn) [Example 224] | C (C = 0-10% remaining) | < 25 | E (>10-25% remaining) | < 10 | ≥ 25 | F (F = >75-100% remaining) | – | – | – | –
CN(C)Cc1ccc(-c2c(-c3ccc4c(c3)CN(C3CCC(=O)NC3=O)C4=O)ncn2C)cc1 (stereo not drawn) [Example 269] | C (C = 0-10% remaining) | < 25 | D (0-10% remaining) | < 10 | < 25 | F (F = >75-100% remaining) | – | – | – | –
Cn1cnc(-c2ccc3c(c2)CN(C2CCC(=O)NC2=O)C3=O)c1-c1cccc(N2CCCC2)c1 (stereo not drawn) [Example 287] | D (D = >10- 25% remaining) | < 25 | D (0-10% remaining) | < 10 | < 25 | F (F = >75-100% remaining) | – | – | – | –
Cn1cc(-c2c(-c3ccc4c(c3)CN(C3CCC(=O)NC3=O)C4=O)ncn2C)cn1 (stereo not drawn) [Example 319] | C (C = 0-10% remaining) | < 25 | D (0-10% remaining) | 10 to 100 | ≥ 25 | E (E = >25-75% remaining) | – | – | – | –
Cn1cnc(-c2ccc3c(c2)CN(C2CCC(=O)NC2=O)C3=O)c1-c1cnn2ccccc12 (stereo not drawn) [Example 331] | D (D = >10- 25% remaining) | < 25 | D (0-10% remaining) | 10 to 100 | ≥ 25 | F (F = >75-100% remaining) | – | – | – | –
Cn1cc(-c2ccc3c(c2)CN(C2CCC(=O)NC2=O)C3=O)nc1C1CCCCC1 (stereo not drawn) [Example 335, 3-(5-(2-cyclohexyl-1-methyl-1H-imidazol-4-yl)-1-oxoisoindolin-2-yl)piperidine-2,6-dione] | C (C = 0-10% remaining) | < 25 | D (0-10% remaining) | 10 to 100 | < 25 | F (F = >75-100% remaining) | – | – | – | –
O=C1CCC(N2Cc3cc(-c4ncn5c4-c4ccccc4C5)ccc3C2=O)C(=O)N1 (stereo not drawn) [Example 339, 3-(5-(5H-imidazo[5,1-a]isoindol-1-yl)-1-oxoisoindolin-2-yl)piperidine-2,6-dione] | C (C = 0-10% remaining) | < 25 | D (0-10% remaining) | 10 to 100 | < 25 | F (F = >75-100% remaining) | – | – | – | –
Cn1ncc(-c2ccc3c(c2)CN(C2CCC(=O)NC2=O)C3=O)c1-c1ccc2cc[nH]c2c1 (stereo not drawn) [Example 379] | – | – | D (0-10% remaining) | < 10 | – | – | C (C = 0-10% remaining) | < 25 | ≥ 25 | F (F = >75-100% remaining)
O=C1CCC(N2Cc3cc(-c4cn(C(F)F)c(-c5ccccc5)n4)ccc3C2=O)C(=O)N1 (stereo not drawn) [Example 421, 3-(5-(1-(difluoromethyl)-2-phenyl-1H-imidazol-4-yl)-1-oxoisoindolin-2-yl)piperidine-2,6-dione] | – | – | F (>25-50% remaining) | 10 to 100 | – | – | C (C = 0-10% remaining) | < 25 | ≥ 25 | F (F = >75-100% remaining)
O=C1CCC(N2Cc3cc(-c4cnn(C(F)F)c4-c4ccccc4)ccc3C2=O)C(=O)N1 (stereo not drawn) [Example 422, 3-(5-(1-(difluoromethyl)-5-phenyl-1H-pyrazol-4-yl)-1-oxoisoindolin-2-yl)piperidine-2,6-dione] | – | – | D (0-10% remaining) | 10 to 100 | – | – | D (D = >10- 25% remaining) | < 25 | < 25 | F (F = >75-100% remaining)
COc1ccc(-c2c(-c3ccc4c(c3)CN(C3CCC(=O)NC3=O)C4=O)cnn2C(F)F)c(Cl)c1 (stereo not drawn) [Example 518, 3-(5-(5-(2-chloro-4-methoxyphenyl)-1-(difluoromethyl)-1H-pyrazol-4-yl)-1-oxoisoindolin-2-yl)piperidine-2,6-dione] | – | – | D (0-10% remaining) | 10 to 100 | – | – | C (C = 0-10% remaining) | < 25 | < 25 | F (F = >75-100% remaining)
Cn1nc(-c2ccc3c(c2)CN(C2CCC(=O)NC2=O)C3=O)nc1-c1ccccc1 (stereo not drawn) [Example 519, 3-[5-(1-methyl-5-phenyl-1,2,4-triazol-3-yl)-1-oxo-isoindolin-2-yl]piperidine-2,6-dione] | – | – | E (>10-25% remaining) | 10 to 100 | – | – | C (C = 0-10% remaining) | < 25 | ≥ 25 | F (F = >75-100% remaining)
Cn1nc(-c2ccc3c(c2)CN(C2CCC(=O)NC2=O)C3=O)cc1C1CCC(F)(F)CC1 (stereo not drawn) [Example 546, 3-(5-(5-(4,4-difluorocyclohexyl)-1-methyl-1H-pyrazol-3-yl)-1-oxoisoindolin-2-yl)piperidine-2,6-dione] | – | – | F (>25-50% remaining) | 10 to 100 | – | – | D (D = >10- 25% remaining) | < 25 | ≥ 25 | F (F = >75-100% remaining)
CC(C)n1nc(-c2ccc3c(c2)CN(C2CCC(=O)NC2=O)C3=O)cc1-c1ccccc1 (stereo not drawn) [Example 550, 3-(5-(1-isopropyl-5-phenyl-1H-pyrazol-3-yl)-1-oxoisoindolin-2-yl)piperidine-2,6-dione] | – | – | D (0-10% remaining) | 10 to 100 | – | – | C (C = 0-10% remaining) | < 25 | ≥ 25 | F (F = >75-100% remaining)
CC(C)n1nc(-c2ccc3c(c2)CN(C2CCC(=O)NC2=O)C3=O)nc1-c1ccccc1 (stereo not drawn) [Example 553, 3-(5-(1-isopropyl-5-phenyl-1H-1,2,4-triazol-3-yl)-1-oxoisoindolin-2-yl)piperidine-2,6-dione] | – | – | D (0-10% remaining) | 10 to 100 | – | – | C (C = 0-10% remaining) | < 25 | ≥ 25 | F (F = >75-100% remaining)
Cn1ncc(-c2ccc3c(c2)CN(C2CCC(=O)NC2=O)C3=O)c1C1CCCCC1 (stereo not drawn) [Example 588] | – | – | F (>25-50% remaining) | 10 to 100 | – | – | E (E = >25-75% remaining) | < 25 | ≥ 25 | F (F = >75-100% remaining)
Cn1cnc(-c2ccc3c(c2)CN(C2CCC(=O)NC2=O)C3=O)c1C1CCCCC1 (stereo not drawn) [Example 594] | – | – | D (0-10% remaining) | < 10 | – | – | C (C = 0-10% remaining) | < 25 | < 25 | E (E = >25-75% remaining)
